Patent US4596710A, “Gallium chloride as a new anti-cancerous drug” (priority 1981, dated 1986)

Columns and labels:
[1] = Clinical, renal and biological tolerance in bitches; format: in vivo, female dogs
Method: The anti-tumoral effect of gallium chloride was firstly studied in female dogs having spontaneous malignant tumours of the breast. Gallium chloride therapy was carried out in bitches having a mammary cancer (tubulo-pillaryadenocarcinoma or mixed-type tumour); treatment started either at the stage of the primary tumour (4 bitches) or upon a recurrence after a surgical excision (10 bitches).
In the third case, the treatment could be continued for more than six months in a very old bitch of 14 years.
Posology of gallium chloride, per os: 7.5 mg/kg from 15.4.1981 to 14.9.1981, then 10 mg/kg.

[2] = system: adenocarcinoma of the colon; assay: 4th patient: gallium chloride treatment, tumour response; format: in vivo, human
Source text: (§1) A person . . . […] On Oct. […] An exploratory laparotomy was made on Nov. […] 7th, 1982.

globular Mg = assay: Globular Mg rates in patients in the course of treatment; format: in vivo, human
Source text: The importance of checking the globular Mg rates was furthermore clearly illustrated by the following two observations (3rd and 4th patients).
On Sept. […] This was the case. . . […] 29th, 1981. This posology was tolerated up to Nov. […] Up to Nov. […] It was from Sept.
as §1
FIGS. 1, 2 and 3 show the curves of the globular Mg (1) and plasmatic Mg (2) rates as a function of time in the course of treatment by gallium chloride (the starting point of the curves corresponding to the first administration) of the three patients. A person […] (1st patient, […] (3rd Patient) and a person […] (4th patient, respectively.
To follow the globular Mg rates, the dosages must be frequent and repeated, about once a week. In fact, there are cyclic variations of the globular Mg rates with a curve of sinusoidal appearance, and the period of these cycles, like the importance of the globular Mg rates, are a function of the evolutive potential of the malignant tumour (P. COLLERY et col. "Role of Magnesium in the Development of Cancer", Trace Substances in Environmental Health, XII, 1978--A Symposium--University of Missouri--Columbia). The appearance of this curve is modified, as indicated above, by the anti-tumoral therapy by gallium chloride.

[3] = therapy continued up to Nov. 10th, 1981

## [Cl][Ga]([Cl])[Cl] [gallium chloride]
[1]; 5 mg/kg
  clinical and biological tolerance, bitches overall: excellent
[1]; 7.5 mg/kg then 10 mg/kg per os
  clinical and renal tolerance, first bitch (OUD): perfect
[1]; 2.5, 5, then 7 mg/kg per os
  clinical and renal tolerance, second bitch (BEL): perfect
[1]; dog, in vivo, 5 mg/kg
  dyspnoea leading to stop of treatment: treatment was stopped for one month due to a dyspnoea
[1]; oral, drinkable ampoules, first bitches 1 mg/kg, particularly digestive
  tolerance, bitches: tolerance proved to be good, particularly from the digestive point of view
[2]; 300 ng per day (so in the source), up to Nov. 10th, 1981
  prevention of recurrence, 4th patient: insufficient
[2]; 300 mg/24 hours oral
  carcinoembryonic antigen rates, 4th patient, Oct. 15th, 1981: 9 ng/mL
[2]; 500 then 300 mg/24 hours oral
  carcinoembryonic antigen rates, first 4 months, 4th patient: normal
  general state, first 4 months, 4th patient: very satisfactory
[2]; Nov. 12th, 1981
  exploratory laparotomy, 4th patient: an indissectable ileomesenteric block and hepatic granulations distributed like grains of rice over the whole of the two lobes of the liver
[2]; [3]
  carcinoembryonic antigen rates, 4th patient, Nov. 26th, 1981: 97 ng/mL
  death, 4th patient: death occured on Jan. 7th, 1982
Globular Mg; 300 mg/24 hours oral
  globular magnesium rates, 4th patient, Oct. 15th, 1981: 3.00 mmol/L
Globular Mg; 800 mg/24 hours, after heparinotherapy stopped
  globular magnesium rates, 3rd patient, Oct. 6th, 1981: 2.96 mmol/L
Globular Mg; 1st, 3rd and 4th patients, when treatment is efficacious
  globular magnesium rates, curves of FIGS. 1-3: decrease
Globular Mg; 500 then 300 mg/24 hours oral
  globular Mg rates, first 4 months, 4th patient: normal
Globular Mg; human, in vivo
  correlation between clinical state, carcinoembryonic antigen and globular magnesium rates, 4th patient: could be emphasized
